Biological target: Tie-2 (Homo sapiens, UniProt Q02763)
Experiment: Tie-2 tyrosine kinase inhibition (ATP consumption by luciferase/luciferin chemiluminescence or 33P-ATP incorporation into pEY substrate)
Type: biochemical
Conditions: human enzyme Tie-2; inhibition given as class symbol
Method: Tyrosine kinase activity is determined by 1) measurement of kinase-dependent ATP consumption by in the presence of a generic substrate such as polyglutamine, tyrosin (pEY), by luciferase/luciferin-mediated chemiluminescence or; 2) incorporation of radioactive phosphate derived from ^33P-ATP into a generic substrate which has been adsorbed onto the well surface of polystyrene microtiter plates. Phosphorylated substrate products are quantified by scintillation spectrometry.
Inhibition is indicated as IC50 with following key: A=IC50 less than 50 nM, B=IC50 greater than 50 nM, but less than or equal to 1000 nM, C=IC50 greater than 1000 nM, but less than 10,000 nM, and D=IC50 10,000 nM or greater. The abbreviation for human enzyme, Tie-2, is defined as tyrosine kinase with immunoglobulin and EGF repeats.

Chain of Tie-2 (Q02763 23-1124): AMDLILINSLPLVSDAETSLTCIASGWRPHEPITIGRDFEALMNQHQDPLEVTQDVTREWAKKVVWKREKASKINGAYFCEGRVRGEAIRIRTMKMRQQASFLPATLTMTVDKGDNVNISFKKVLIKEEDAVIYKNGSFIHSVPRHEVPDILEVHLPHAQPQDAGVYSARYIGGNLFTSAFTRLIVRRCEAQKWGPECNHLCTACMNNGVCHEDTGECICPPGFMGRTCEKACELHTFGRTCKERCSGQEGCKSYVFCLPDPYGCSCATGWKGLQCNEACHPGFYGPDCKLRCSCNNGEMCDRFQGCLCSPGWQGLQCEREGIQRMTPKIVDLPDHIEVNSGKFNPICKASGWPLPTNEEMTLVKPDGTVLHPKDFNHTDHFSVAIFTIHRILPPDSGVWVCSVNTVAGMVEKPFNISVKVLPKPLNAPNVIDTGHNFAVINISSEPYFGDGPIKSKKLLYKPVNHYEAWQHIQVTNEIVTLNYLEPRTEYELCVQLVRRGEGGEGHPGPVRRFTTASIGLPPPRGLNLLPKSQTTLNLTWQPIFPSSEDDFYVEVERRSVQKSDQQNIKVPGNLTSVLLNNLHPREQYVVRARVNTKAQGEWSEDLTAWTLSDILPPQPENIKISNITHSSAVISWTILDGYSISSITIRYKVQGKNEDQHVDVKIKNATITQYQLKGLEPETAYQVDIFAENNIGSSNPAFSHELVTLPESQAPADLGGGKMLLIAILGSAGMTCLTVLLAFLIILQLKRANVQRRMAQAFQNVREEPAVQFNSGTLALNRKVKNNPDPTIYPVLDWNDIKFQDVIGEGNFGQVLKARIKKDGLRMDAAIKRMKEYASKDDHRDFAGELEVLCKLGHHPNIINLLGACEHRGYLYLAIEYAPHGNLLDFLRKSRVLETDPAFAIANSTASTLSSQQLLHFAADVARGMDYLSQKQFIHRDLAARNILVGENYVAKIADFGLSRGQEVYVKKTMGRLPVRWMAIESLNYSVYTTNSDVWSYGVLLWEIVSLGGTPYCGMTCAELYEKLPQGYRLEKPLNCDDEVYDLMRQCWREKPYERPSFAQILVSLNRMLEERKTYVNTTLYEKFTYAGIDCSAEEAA

| SMILES | IC50 [µM] |
| --- | --- |
| OC[C@@H](O)CNc1nc(-c2ccncc2)nc2ccccc12 [Compound 39, (2S)-3-[(2-pyridin-4-ylquinazolin-4-yl)amino]propane-1,2-diol] | ≥ 10 |
| c1ccc2c(N[C@H]3CCCNC3)nc(-c3ccncc3)nc2c1 [Compound 50, N-[(3S)-piperidin-3-yl]-2-pyridin-4-ylquinazolin-4-amine] | ≥ 10 |
| O[C@@H]1CCCC[C@H]1Nc1nc(-c2ccccc2)nc2ccccc12 [Compound 29, (1R,2R)-2-[(2-phenylquinazolin-4-yl)amino]cyclohexanol] | ≥ 10 |
| OC[C@H]1C[C@@H](Nc2nc(-c3ccccc3)nc3ccccc23)[C@H](O)[C@@H]1O [Compound 30, (1S,2R,3R,5R)-3-(hydroxymethyl)-5-[(2-phenylquinazolin-4-yl)amino]cyclopentane-1,2-diol] | ≥ 10 |
| COc1ncc(-c2nc(N[C@H]3c4ccccc4C[C@H]3O)c3ccccc3n2)c(OC)n1 [Compound 52, (1S,2R)-1-({2-[2,4-bis(methyloxy)pyrimidin-5-yl]quinazolin-4-yl}amino)-2,3-dihydro-1H-inden-2-ol] | ≥ 10 |
| c1ccc2c(NCCN3CCOCC3)nc(-c3ccncc3)nc2c1 [Compound 10, N-(2-morpholin-4-ylethyl)-2-pyridin-4-ylquinazolin-4-amine] | ≥ 10 |
| O[C@H]1Cc2ccccc2[C@H]1Nc1nc(-c2ccccn2)nc2ccccc12 [Compound 38, (1R,2S)-1-[(2-pyridin-2-ylquinazolin-4-yl)amino]-2,3-dihydro-1H-inden-2-ol] | ≥ 10 |
| O[C@H]1Cc2ccccc2[C@H]1Nc1nc(-c2ccncc2)nc2ccccc12 [Compound 17, (1R,2S)-1-[(2-pyridin-4-ylquinazolin-4-yl)amino]-2,3-dihydro-1H-inden-2-ol] | ≥ 10 |
| CC(C)[C@H](CO)Nc1nc(-c2ccncc2)nc2ccccc12 [Compound 53, (2R)-3-methyl-2-[(2-pyridin-4-ylquinazolin-4-yl)amino]butan-1-ol] | ≥ 10 |
| O[C@H]1Cc2ccccc2[C@H]1Nc1nc(-c2cccnc2)nc2ccccc12 [Compound 34, (1R,2S)-1-[(2-pyridin-3-ylquinazolin-4-yl)amino]-2,3-dihydro-1H-inden-2-ol] | ≥ 10 |
| OCCCNc1nc(-c2ccncc2)nc2ccccc12 [Compound 6, 3-[(2-pyridin-4-ylquinazolin-4-yl)amino]propan-1-ol] | ≥ 10 |
| Oc1ccc(-c2nc(N[C@H]3c4ccccc4C[C@H]3O)c3ccccc3n2)cn1 [Compound 64, 5-(4-{[(1S,2R)-2-hydroxy-2,3-dihydro-1H-inden-1-yl]amino}quinazolin-2-yl)pyridin-2-ol] | ≥ 10 |
| O[C@@H]1CCC[C@H]1Nc1nc(-c2ccccc2)nc2ccccc12 [Compound 28, (1R,2R)-2-[(2-phenylquinazolin-4-yl)amino]cyclopentanol] | ≥ 10 |
| c1ccc2c(NN3CCCCC3)nc(-c3ccncc3)nc2c1 [Compound 67, N-piperidin-1-yl-2-pyridin-4-ylquinazolin-4-amine] | ≥ 10 |
| c1ccc(Nc2ccc(Nc3nc(-c4ccncc4)nc4ccccc34)cc2)cc1 [Compound 23, N-phenyl-N′-(2-pyridin-4-ylquinazolin-4-yl)benzene-1,4-diamine] | ≥ 10 |
| CC(C)(C)OC(=O)N1CCN(c2nc(-c3ccncc3)nc3ccccc23)CC1 [Compound 14, 1,1-dimethylethyl 4-(2-pyridin-4-ylquinazolin-4-yl)piperazine-1-carboxylate] | ≥ 10 |
| O[C@@H]1Cc2ccccc2[C@@H]1Nc1nc(-c2ccccn2)nc2ccccc12 [Compound 37, (1S,2R)-1-[(2-pyridin-2-ylquinazolin-4-yl)amino]-2,3-dihydro-1H-inden-2-ol] | ≥ 10 |
| OC[C@@H]1Cc2ccccc2N1c1nc(-c2ccncc2)nc2ccccc12 [Compound 40, [(2S)-1-(2-pyridin-4-ylquinazolin-4-yl)-2,3-dihydro-1H-indol-2-yl]methanol] | ≥ 10 |
| c1ccc(CO[C@H]2CCC[C@@H]2Nc2nc(-c3ccncc3)nc3ccccc23)cc1 [Compound 22, N-{(1S,2S)-2-[(phenylmethyl)oxy]cyclopentyl}-2-pyridin-4-ylquinazolin-4-amine] | ≥ 10 |
| O[C@@H]1Cc2ccccc2[C@@H]1Nc1nc(-c2cnccn2)nc2ccccc12 [Compound 58, (1S,2R)-1-[(2-pyrazin-2-ylquinazolin-4-yl)amino]-2,3-dihydro-1H-inden-2-ol] | ≥ 10 |

Next, values leading:

| IC50 [µM] | SMILES |
| --- | --- |
| 1 to 10 | OC[C@H](Nc1nc(-c2ccncc2)nc2ccccc12)c1ccccc1 [Compound 56, (2R)-2-phenyl-2-[(2-pyridin-4-ylquinazolin-4-yl)amino]ethanol] |
| 0.05 to 1 | O[C@@H]1Cc2ccccc2[C@@H]1Nc1ccnc(-c2ccncc2)n1 [Compound 57, (1S,2R)-1-[(2-pyridin-4-ylpyrimidin-4-yl)amino]-2,3-dihydro-1H-inden-2-ol] |
| 1 to 10 | COc1ccc(-c2nc(N[C@H]3c4ccccc4C[C@H]3O)c3ccccc3n2)cn1 [Compound 49, (1S,2R)-1-({2-[6-(methyloxy)pyridin-3-yl]quinazolin-4-yl}amino)-2,3-dihydro-1H-inden-2-ol] |
| < 0.05 | O[C@@H]1Cc2ccccc2[C@@H]1Nc1nc(-c2ccncc2)nc2ccc(Cl)cc12 [Compound 31, (1S,2R)-1-[(6-chloro-2-pyridin-4-ylquinazolin-4-yl)amino]-2,3-dihydro-1H-inden-2-ol] |
| 1 to 10 | c1ccc2c(NCC3CCCCC3)nc(-c3ccncc3)nc2c1 [Compound 4, N-(cyclohexylmethyl)-2-pyridin-4-ylquinazolin-4-amine] |
| 1 to 10 | OC[C@H](Cc1ccccc1)Nc1nc(-c2ccncc2)nc2ccccc12 [Compound 61, (2S)-3-phenyl-2-[(2-pyridin-4-ylquinazolin-4-yl)amino]propan-1-ol] |
| < 0.05 | O[C@@H]1Cc2ccccc2[C@@H]1Nc1nc(-c2ccncc2)nc2ccc(Br)cc12 [Compound 45, (1S,2R)-1-[(6-bromo-2-pyridin-4-ylquinazolin-4-yl)amino]-2,3-dihydro-1H-inden-2-ol] |
| 1 to 10 | CC(C)(C)OC(=O)N1CCC(Nc2nc(-c3ccncc3)nc3ccccc23)CC1 [Compound 19, 1,1-dimethylethyl 4-[(2-pyridin-4-ylquinazolin-4-yl)amino]piperidine-1-carboxylate] |
| 1 to 10 | c1ccc2c(c1)CC[C@H](Nc1nc(-c3ccncc3)nc3ccccc13)C2 [Compound 15, 2-pyridin-4-yl-N-[(2S)-1,2,3,4-tetrahydronaphthalen-2-yl]quinazolin-4-amine] |
| 1 to 10 | Fc1ccc(CNc2nc(-c3ccncc3)nc3ccccc23)cc1 [Compound 7, N-[(4-fluorophenyl)methyl]-2-pyridin-4-ylquinazolin-4-amine] |
| 1 to 10 | CC(C)[C@@H](CO)Nc1nc(-c2ccncc2)nc2ccccc12 [Compound 54, (2S)-3-methyl-2-[(2-pyridin-4-ylquinazolin-4-yl)amino]butan-1-ol] |
| < 0.05 | O[C@@H]1Cc2ccccc2[C@@H]1Nc1nc(-c2ccncc2)nc2ccccc12 [Compound 18, (1S,2R)-1-[(2-pyridin-4-ylquinazolin-4-yl)amino]-2,3-dihydro-1H-inden-2-ol] |
| 0.05 to 1 | Nc1nccc(-c2nc(N[C@H]3c4ccccc4C[C@H]3O)c3ccccc3n2)n1 [Compound 63, (1S,2R)-1-{[2-(2-aminopyrimidin-4-yl)quinazolin-4-yl]amino}-2,3-dihydro-1H-inden-2-ol] |

— patent US7763627B2, “Tie-2 modulators and methods of use” (Exelixis, Inc., priority 2003, dated 2010)
